Molecules are shown by their SMILES.

Chain of Active human KLK7 (SCCE) (P49862 30-253): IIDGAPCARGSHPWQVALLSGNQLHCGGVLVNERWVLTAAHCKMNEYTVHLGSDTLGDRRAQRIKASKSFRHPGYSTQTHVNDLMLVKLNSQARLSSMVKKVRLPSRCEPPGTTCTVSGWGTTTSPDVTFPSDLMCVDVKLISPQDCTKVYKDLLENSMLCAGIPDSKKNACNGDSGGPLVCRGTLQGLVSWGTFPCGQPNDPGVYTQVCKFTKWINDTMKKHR

The target of the experiment is Active human KLK7 (SCCE) (Homo sapiens (Human), UniProt P49862). Put plainly: KLK7 Inhibitor Test. The class given is biochemical. To be noted: substrate MeO-Suc-Arg-Pro-Tyr-pNA, pH 7.2, 37° C., absorbance at 405 nm. The method, then:
KLK7 Inhibitor Test Substrate:(MeO-Suc-[…]), acetate salt, Peptide international, lot #906841, previously named S-2586 Enzyme: […] Buffer: 10 mM NaPhospate, 0.5 M NaCl, pH 7.2 […] 10 μl of substance in DMSO was added to wells giving final concentrations of 20 μ[…], and 0.15625 μM. 40 μl of active KLK7 (SCCE) (diluted to 12.5 μg/ml in activity buffer) was added all wells except blank to which activity buffer was added. […] The mean value V of each sample was calculated (n=2 for the substances and n=4 for the control). From the values of V the % of total activity was calculated as (Vinhibitor/Vcontrol (no inhibitor))×100. Plotting and calculation was then done in originPro. % of total activity (y) was plotted vs. log [inhibitor] (log x) and a function of dose response y=A1+(A2-A1)/(1+10^((LOG(x0)-x)*p)) where A1=Bottom platue, A2=Top platue, x0=EC50 and p=Hill slope was fitted to the curve. […] The IC50 values were used to identify KLK7 inhibitors according to the invention.
As for `Cc1cc(NC(=O)COC(=O)Cc2ccc(Cl)cc2)no1` [Compound 73], half-maximal inhibition (IC50) was put at 2900 nM. The result for `CCC(OC(=O)Cc1ccc(Cl)cc1)C(=O)Nc1ccc(OC)cc1` (centres unmarked) [Compound 6, 1-[(4-methoxyphenyl)carbamoyl]propyl 2-(4-chlorophenyl)acetate] reads 120 nM; that for `COc1ccc(CC(=O)OC(C(=O)Nc2ccccc2)C(C)C)cc1` (centres unmarked) [Compound 94, [2-methyl-1-(phenylcarbamoyl)propyl] 2-(4-methoxyphenyl)acetate], 3600 nM. Regarding `COCCC(OC(=O)C(c1ccccc1)c1ccccc1)C(=O)Nc1cc(C)on1` (centres unmarked) [Compound 38], the IC50 was determined as 470 nM.

`COc1ccc(CC(=O)OCC(=O)Nc2ccc(OC)cc2)cc1` [Compound 68] showed an IC50 of 2310 nM.

Compound `Cc1cc(NC(=O)C(OC(=O)CCC2CCCC2)C(C)C)no1` (centres unmarked) [Compound 72, [2-methyl-1-[(5-methylisoxazol-3-yl)carbamoyl]propyl] 3-cyclopentylpropanoate] displayed an IC50 of 2780 nM. In turn, `CCCC(OC(=O)C(c1ccccc1)c1ccccc1)C(=O)Nc1cc(C)on1` (centres unmarked) [Compound 18] gave an IC50 of 220 nM. Then `CCC(OC(=O)C(NC(=O)c1ccccc1)c1ccccc1)C(=O)Nc1cc(C)on1` (centres unmarked) [Compound 45], with 660 nM; and `COc1ccc(CC(=O)OC(C)C(=O)Nc2cc(C)on2)cc1` (centres unmarked) [Compound 7, [1-methyl-2-[(5-methylisoxazol-3-yl)amino]-2-oxo-ethyl] 2-(4-methoxyphenyl) acetate], with 130 nM. `CCC(OC(=O)C(c1ccccc1)c1ccccc1)C(=O)Nc1cc(C)on1` (centres unmarked) [Compound 33] displayed an IC50 of 390 nM. Take `Cc1cc(NC(=O)C(C)OC(=O)CCC2CCCC2)no1` (centres unmarked) [Compound 14, [1-methyl-2-[(5-methylisoxazol-3-yl)amino]-2-oxo-ethyl] 3-cyclopentylpropanoate]: half-maximal inhibition (IC50) required 180 nM. The result for `CCC(OC(=O)C(NC(=O)c1ccccc1)c1ccccc1)C(=O)Nc1cc(C)on1` (centres unmarked) [Compound 85] reads 6430 nM; that for `CCC(OC(=O)Cc1ccc(Cl)c(Cl)c1)C(=O)Nc1cc(C)on1` (centres unmarked) [Compound 39, 1-[(5-methylisoxazol-3-yl)carbamoyl]propyl 2-(3,4-dichlorophenyl)acetate], 480 nM; that for `O=C(COC(=O)CCC1CCCC1)Nc1ccc(F)cc1` [Compound 51], 830 nM. Then `CC(OC(=O)Cc1ccc(Cl)cc1)C(=O)Nc1ccc(F)cc1` (centres unmarked) [Compound 2], with 70 nM; and `CC(OC(=O)C(NC(=O)c1ccccc1)c1ccccc1)C(=O)NCc1ccccc1` (centres unmarked) [Compound 83, [2-(benzylamino)-1-methyl-2-oxo-ethyl] 2-benzamido-2-phenyl-acetate], with 5890 nM; and `O=C(NC(C(=O)OC(C(=O)Nc1ccccc1)c1ccccc1)c1ccccc1)c1ccccc1` (centres unmarked) [Compound 76, (2-anilino-2-oxo-1-phenyl-ethyl) 2-benzamido-2-phenyl-acetate], with 3340 nM. The result for `COc1ccc(CC(=O)OC(C(=O)Nc2cc(C)on2)c2ccccc2)cc1` (centres unmarked) [Compound 36, [2-[(5-methylisoxazol-3-yl)amino]-2-oxo-1-phenyl-ethyl] 2-(4-methoxyphenyl)acetate] reads 430 nM; that for `COc1ccc(CC(=O)OC(C(=O)Nc2cc(C)on2)C(C)C)cc1` (centres unmarked) [Compound 84, [2-methyl-1-[(5-methylisoxazol-3-yl)carbamoyl]propyl] 2-(4-methoxyphenyl)acetate], 6250 nM.

As to `COc1ccc(NC(=O)C(OC(=O)C(c2ccccc2)c2ccccc2)c2ccccc2)cc1` (centres unmarked) [Compound 78, [2-(4-methoxyanilino)-2-oxo-1-phenyl-ethyl] 2,2-diphenylacetate], the IC50 is 4330 nM.

`CCC(OC(=O)C(c1ccccc1)c1ccccc1)C(=O)Nc1ccc(OC)cc1` (centres unmarked) [Compound 43, 1-[(4-methoxyphenyl)carbamoyl]propyl 2,2-diphenylacetate] came in with an IC50 of 630 nM. Then `Cc1cc(NC(=O)C(C)OC(=O)Cc2ccc(Cl)cc2)no1` (centres unmarked) [Compound 1, [1-methyl-2-[(5-methylisoxazol-3-yl)amino]-2-oxo-ethyl] 2-(4-chlorophenyl)acetate], with 39 nM; and `CC(OC(=O)Cc1ccc(Cl)cc1)C(=O)Nc1ccccc1` (centres unmarked) [Compound 5], with 90 nM; and `COc1ccc(NC(=O)C(OC(=O)C(NC(=O)c2ccccc2)c2ccccc2)C(C)C)cc1` (centres unmarked) [Compound 95, [1-[(4-methoxyphenyl)carbamoyl]-2-methyl-propyl] 2-benzamido-2-phenyl-acetate], with 6300 nM. The compound `COc1ccc(NC(=O)C(C)OC(=O)C(c2ccccc2)c2ccccc2)cc1` (centres unmarked) [Compound 57] registered an IC50 of 1180 nM. In the case of `O=C(COC(=O)C(NC(=O)c1ccccc1)c1ccccc1)Nc1ccc(F)cc1` (centres unmarked) [Compound 61, [2-(4-fluoroanilino)-2-oxo-ethyl] 2-benzamido-2-phenyl-acetate], the IC50 worked out at 1510 nM. The result for `CCC(OC(=O)C(NC(=O)c1ccccc1)c1ccccc1)C(=O)Nc1ccc(F)cc1` (centres unmarked) [Compound 65, 1-[(4-fluorophenyl)carbamoyl]propyl 2-benzamido-2-phenyl-acetate] reads 1790 nM; that for `Cc1cc(NC(=O)COC(=O)CCC2CCCC2)no1` [Compound 58], 1200 nM; that for `Cc1cc(NC(=O)C(OC(=O)Cc2ccc(Cl)cc2)C(C)C)no1` (centres unmarked) [Compound 70, [2-methyl-1-[(5-methylisoxazol-3-yl)carbamoyl]propyl] 2-(4-chlorophenyl)acetate], 2700 nM. On to `Cc1cc(NC(=O)C(C)OC(=O)C(NC(=O)c2ccccc2)c2ccccc2)no1` (centres unmarked) [Compound 52, [1-methyl-2-[(5-methylisoxazol-3-yl)amino]-2-oxo-ethyl] 2-benzamido-2-phenyl-acetate], for which it took 950 nM to reach half-maximal inhibition (IC50). The result for `COc1ccc(NC(=O)COC(=O)CCC2CCCC2)cc1` [Compound 46] reads 690 nM; that for `O=C(COC(=O)C(c1ccccc1)c1ccccc1)Nc1ccc(F)cc1` [Compound 88], 8490 nM; that for `CC(C)C(OC(=O)C(NC(=O)c1ccccc1)c1ccccc1)C(=O)Nc1ccc(F)cc1` (centres unmarked) [Compound 96, [1-[(4-fluorophenyl)carbamoyl]-2-methyl-propyl] 2-benzamido-2-phenyl-acetate], 3700 nM.

The compound `CCC(OC(=O)C(c1ccccc1)c1ccccc1)C(=O)Nc1ccc(F)cc1` (centres unmarked) [Compound 44, 1-[(4-fluorophenyl)carbamoyl]propyl 2,2-diphenylacetate] gave an IC50 of 640 nM. Then `COc1ccc(NC(=O)COC(=O)C(c2ccccc2)c2ccccc2)cc1` [Compound 87], with 7390 nM. The compound `Cc1cc(NC(=O)C(OC(=O)C(NC(=O)c2ccccc2)c2ccccc2)c2ccccc2)no1` (centres unmarked) [Compound 49, [2-[(5-methylisoxazol-3-yl)amino]-2-oxo-1-phenyl-ethyl] 2-benzamido-2-phenyl-acetate] returned an IC50 of 780 nM. Then `Cc1cc(NC(=O)COC(=O)CCC2CCCC2)no1` [Compound 69], with 2700 nM. The result for `CC(OC(=O)C(c1ccccc1)c1ccccc1)C(=O)Nc1ccc(F)cc1` (centres unmarked) [Compound 63] reads 1620 nM. Then `COc1ccc(NC(=O)C(OC(=O)Cc2ccc(Cl)cc2)C(C)C)cc1` (centres unmarked) [Compound 92, [1-[(4-methoxyphenyl)carbamoyl]-2-methyl-propyl] 2-(4-chlorophenyl)acetate], with 3800 nM; and `Cc1cc(NC(=O)COC(=O)C(c2ccccc2)c2ccccc2)no1` [Compound 80], with 4700 nM; and `CC(C)C(OC(=O)C(NC(=O)c1ccccc1)c1ccccc1)C(=O)Nc1ccccc1` (centres unmarked) [Compound 93, [2-methyl-1-(phenylcarbamoyl)propyl] 2-benzamido-2-phenyl-acetate], with 2300 nM. Take `COc1ccc(NC(=O)C(C)OC(=O)C(NC(=O)c2ccccc2)c2ccccc2)cc1` (centres unmarked) [Compound 71, [2-(4-methoxyanilino)-1-methyl-2-oxo-ethyl] 2-benzamido-2-phenyl-acetate]: the IC50 worked out at 2760 nM. As for `COc1ccc(CC(=O)OC(C)C(=O)Nc2ccc(F)cc2)cc1` (centres unmarked) [Compound 42], the IC50 is 590 nM. The result for `COc1ccc(CC(=O)OC(C(=O)Nc2ccc(OC)cc2)c2ccccc2)cc1` (centres unmarked) [Compound 35, [2-(4-methoxyanilino)-2-oxo-1-phenyl-ethyl] 2-(4-methoxyphenyl)acetate] reads 410 nM; that for `CCC(OC(=O)Cc1ccc(Cl)cc1)C(=O)Nc1ccc(F)cc1` (centres unmarked) [Compound 8, 1-[(4-fluorophenyl)carbamoyl]propyl 2-(4-chlorophenyl)acetate], 140 nM; that for `CCC(OC(=O)CCC1CCCC1)C(=O)Nc1cc(C)on1` (centres unmarked) [Compound 16, 1-[(5-methylisoxazol-3-yl)carbamoyl]propyl 3-cyclopentylpropanoate], 190 nM. Consider `Cc1cc(NC(=O)C(OC(=O)CCC2CCCC2)c2ccccc2)no1` (centres unmarked) [Compound 20, [2-[(5-methylisoxazol-3-yl)amino]-2-oxo-1-phenyl-ethyl] 3-cyclopentylpropanoate], for which the IC50 came to 230 nM. In the case of `O=C(COC(=O)C(c1ccccc1)c1ccccc1)Nc1ccccc1` [Compound 90], the IC50 came out at 11200 nM. Then `COc1ccc(CC(=O)OC(C(=O)Nc2ccc(F)cc2)c2ccccc2)cc1` (centres unmarked) [Compound 56], with 1170 nM. With `CCC(OC(=O)CCC1CCCC1)C(=O)Nc1ccc(OC)cc1` (centres unmarked) [Compound 11, 1-[(4-methoxyphenyl)carbamoyl]propyl 3-cyclopentylpropanoate], 150 nM corresponded to half-maximal inhibition (IC50).

One may read the IC50 as the concentration at which inhibition is half-maximal. High values mean lower potency, low ones higher potency.
